# Test: In vitro permeation across sheep nasal mucosa, Franz cells
# Settings: saturated solution, Franz cell, 7 h, FIG. 1
# Experimental: Freshly excised sheep nasal mucosa was used and prepared following a standard protocol. The excised sheep nasal mucosa was cleaned by rinsing with de-ionized water and either used fresh or placed flat over a filter paper and stored frozen until used.
# (ii) Dosing and Sample Collection—Franz cell studies: Individually calibrated Franz cells with an average surface area and volume of approximately 0.6 cm^2 and 2 mL, respectively, were employed to determine the permeation characteristics of drug. The nasal sheep mucosa was mounted between the two halves of the Franz cell with the mucosal side facing the donor compartment. The receptor compartment was filled with receiver fluid, stirred constantly with a PTFE-coated magnetic follower driven by a submersible magnetic stirrer bed and maintained at 37° C. in a water bath. Approximately 1 mL (infinite dose) of saturated drug solution was placed into the donor compartment and covered with […] ® (Pechiney Plastic Packaging, Inc., Chicago, Ill.) throughout the study. Following the application of the drug solution, the receiver fluid (200 μL) was removed from the receptor compartment via the sampling arm after sampling times (t=1, 2, 3, 4, 5, 6 and 7 h) and analyzed via HPLC. Each sample removed was replaced by an equal volume of fresh pre-warmed (37° C.) receiver fluid. […]
compound,measurement,value
"O=C1CN=C(c2ccccc2Cl)c2cc([N+](=O)[O-])ccc2N1 [Clonazepam, 5-(2-chlorophenyl)-1,3-dihydro-7-nitro-2H-1,4-benzodiazepin-2-one]",permeation across sheep nasal mucosa,at steady state

# From US8716279B2, “Pharmaceutical compositions of clonazepam and method of use thereof” (Jazz Pharmaceuticals, Inc., priority 2006, dated 2014)
